The text below walks through data of ChEMBL document CHEMBL1125786, “Synthesis and biological evaluation of hydroxamate-based iron chelators” (1991).

Each structure is given as a SMILES string.

Common to all, as to format: functional
The subject of assay [1] is Rattus norvegicus. Briefly: Total iron output induced by the compound in bile (non-iron-overloaded bile duct cannulated rat), after 3 hours of po administration.
Assay [2] relates to Rattus norvegicus. Kind of assay: Total iron output induced by the compound in bile (non-iron-overloaded bile duct cannulated rat), after 24 hours of sc administration.
Assay [3] deals with Rattus norvegicus. Briefly: Total iron output induced by the compound in non-iron-overloaded bile duct cannulated rat, after 24 hours of po administration.
Assay [4] has as its system Rattus norvegicus. Briefly: Total iron output induced by the compound in bile (non-iron-overloaded bile duct cannulated rat), after 3 hours of sc administration.
In assay [5] the test system is Rattus norvegicus. Briefly: Total iron output induced by the compound in bile (non-iron-overloaded bile duct cannulated rat), after 18 hours of sc administration.
The subject of assay [6] is Rattus norvegicus. Kind of assay: Total iron output induced by the compound in bile (non-iron-overloaded bile duct cannulated rat), after 15 hours of po administration.
The test system of assay [7] is Rattus norvegicus. Briefly: Total iron output induced by the compound in urine (non-iron-overloaded bile duct cannulated rat), after 24 hours of sc administration.
Assay [8] relates to Rattus norvegicus. Kind of assay: Total iron output induced by the compound in bile (non-iron-overloaded bile duct cannulated rat), after 12 hours of po administration.
For assay [9], the system named is Rattus norvegicus. Briefly: Total iron output induced by the compound in non-iron-overloaded bile duct cannulated rat(Treated-control), after 24 hours of sc administration.
For assay [10], the system named is Rattus norvegicus. Kind of assay: Total iron output induced by the compound in non-iron-overloaded bile duct cannulated rat(Treated-control), after 24 hours of po administration.
The subject of assay [11] is Rattus norvegicus. Briefly: Total iron output induced by the compound in bile (non-iron-overloaded bile duct cannulated rat), after 9 hours of po administration.
Assay [12] concerns Rattus norvegicus. Kind of assay: Total iron output induced by the compound in urine (non-iron-overloaded bile duct cannulated rat), after 24 hours of po administration.
The test system of assay [13] is Rattus norvegicus. Kind of assay: Total iron output induced by the compound in non-iron-overloaded bile duct cannulated rat, after 24 hours of sc administration.
The test system of assay [14] is Rattus norvegicus. Briefly: Total iron output induced by the compound in bile (non-iron-overloaded bile duct cannulated rat), after 21 hours of sc administration.
Assay [15] deals with Rattus norvegicus. Briefly: Total iron output induced by the compound in bile (non-iron-overloaded bile duct cannulated rat), after 21 hours of po administration.
For assay [16], the system named is Rattus norvegicus. Briefly: Total iron output induced by the compound in bile (non-iron-overloaded bile duct cannulated rat), after 6 hours of sc administration.
Assay [17] deals with Rattus norvegicus. Briefly: Total iron output induced by the compound in bile (non-iron-overloaded bile duct cannulated rat), after 24 hours of po administration.
Assay [18] relates to Rattus norvegicus. Kind of assay: Total iron output induced by the compound in bile (non-iron-overloaded bile duct cannulated rat), after 15 hours of sc administration.
Assay [19] relates to Rattus norvegicus. Kind of assay: Total iron output induced by the compound in bile (non-iron-overloaded bile duct cannulated rat), after 12 hours of sc administration.
Assay [20] relates to Rattus norvegicus. Kind of assay: Total iron output induced by the compound in bile (non-iron-overloaded bile duct cannulated rat), after 9 hours of sc administration.
Assay [21] concerns Rattus norvegicus. Kind of assay: Total iron output induced by the compound in bile (non-iron-overloaded bile duct cannulated rat), after 6 hours of po administration.
Assay [22] has as its system Rattus norvegicus. Briefly: Total iron output induced by the compound in bile (non-iron-overloaded bile duct cannulated rat), after 18 hours of po administration.

For `CC(=O)N(O)CCCCCNC(=O)CCC(=O)N(O)CCCCCNC(=O)CCC(=O)N(O)CCCCCN` [DEFEROXAMINE], the Iron output is 14.7 in assay [1]; 228.4 in [2]; 151.5 in assay [3]; 43.6 in [4]; 210.7 in assay [5]; 110.8 in [6]. In addition, the Iron output in assay [7] came to 49.2; in assay [8], 97.1; in [9], 212.4; in assay [10] it was 86.3; in assay [11], 76.8; in assay [12], 16.5. Also, the Iron output was determined as 277.6 in assay [13]; 219.8 in [14]; 128.7 in assay [15]; 105.9 in [16]; 135 in [17]; 196.2 in assay [18]. In addition, the Iron output was 173.9 in assay [19], 152.8 in assay [20], 43.9 in assay [21] and 119.8 in assay [22].
For the compound `COCCOCCOCCN(O)C(=O)CCC(=O)NCCCCCN(O)C(=O)CCC(=O)NCCCCCN(O)C(C)=O`, the Iron output in assay [1] turned out to be 20.2; in [2], 599.5; in assay [3], 108.7; in assay [4], 117.3; in assay [5], 561.2; in assay [6] it was 76.5. Besides, the Iron output in [7] was 68.4; in assay [8] it was 67.5; in [9] it was 602.7; in assay [10], 43.5; in [11], 56.8; in assay [12], 15. The Iron output is 667.9 in assay [13]; 585.9 in assay [14]; 89 in assay [15]; 262.5 in assay [16]; 93.7 in assay [17]; 519.6 in assay [18]. The Iron output in assay [19] worked out at 456.1; in assay [20], 374.6; in assay [21], 42.8; in assay [22], 83.8.
In the case of `COCCOCCOCCN(O)C(=O)CCC(=O)NCCCCCN(O)C(=O)CCC(=O)NCCCCCN(O)C(=O)COCCOCCOC`, the Iron output came out at 16.3 in assay [1]; 539.7 in assay [2]; 99.8 in assay [3]; 106.9 in [4]; 526 in assay [5]; 67.9 in assay [6]. Also, the Iron output in [7] was 45.3; in [8], 59.7; in assay [9], 519.8; in [10] it was 34.6; in assay [11] it was 42.5; in assay [12] it was 13.3. Also, the Iron output in assay [13] came to 585; in assay [14], 534.2; in assay [15], 81.3; in assay [16] it was 244.4; in assay [17] it was 86.6; in assay [18], 509.1. The Iron output in [19] was 467; in [20], 362.6; in [21], 31.7; in assay [22], 74.6.
